From patent US11725036B2, “Modified lipidated relaxin B chain peptides and their therapeutic use” (Sanofi, priority 2018, dated 2023)
In brackets after ≈: the same amount, converted by molar mass. Like-named read-outs stand apart in the source and are kept apart here. Starred links: 1 amine or outer side, 2 acyl side, 3 side chain; linkers in the order of their positions; H or OH if unused. Non-standard residues stand in square brackets, D forms with d. Residues, ends and D or L forms follow the SMILES beside them. Groups on a side chain read outwards from the residue. *: point of attachment. X3 = CCCCCCCCCCCCCCCCCC(=O)N[C@@H](CCC(=O)N[C@@H](CCC(=O)N[C@@H](CCC(=O)NCCCOCCOCCOCCCNC(=O)CCC(=O)NCCCOCCOCCOCCCNC(=O)CCC(=O)NCCCOCCOCCOCCCN*)C(=O)O)C(=O)O)C(=O)O; X1 = CCCCCCCCCCCCCCCC(=O)N[C@@H](CCC(=O)N[C@@H](CCC(=O)N[C@@H](CCC(=O)NCCCOCCOCCOCCCNC(=O)CCC(=O)NCCCOCCOCCOCCCNC(=O)CCC(=O)NCCCOCCOCCOCCCN*)C(=O)O)C(=O)O)C(=O)O; X4 = CCCCCCCCCCCCCCCCCC(=O)N[C@@H](CCC(=O)N[C@@H](CCC(=O)N[C@@H](CCC(=O)NCCCOCCOCCOCCCNC(=O)CCC(=O)NCCCOCCOCCOCCCN*)C(=O)O)C(=O)O)C(=O)O; Suc = O=C(CCC(=O)[*:2])[*:1]; αMeK = C[C@](N)(CCCCN)C(=O)O; Aib = CC(C)(N)C(=O)O

What was measured:
[1] = molecular target: T1, RXFP1 (Homo sapiens, UniProt Q9HBX9); assay: OVCAR5 cAMP assay (HTRF); assay type: cell-based; settings: for EC50: OVCAR 5 cells expressing endogenous RXFP1, cAMP readout; for Emax: OVCAR 5 cells, maximal cAMP relative to H2-relaxin
T1 construct: OVCAR5 cells expressing endogenous RXFP1; endogenous in cells; host or cells: OVCAR5
T1 sequence (Q9HBX9 1-757): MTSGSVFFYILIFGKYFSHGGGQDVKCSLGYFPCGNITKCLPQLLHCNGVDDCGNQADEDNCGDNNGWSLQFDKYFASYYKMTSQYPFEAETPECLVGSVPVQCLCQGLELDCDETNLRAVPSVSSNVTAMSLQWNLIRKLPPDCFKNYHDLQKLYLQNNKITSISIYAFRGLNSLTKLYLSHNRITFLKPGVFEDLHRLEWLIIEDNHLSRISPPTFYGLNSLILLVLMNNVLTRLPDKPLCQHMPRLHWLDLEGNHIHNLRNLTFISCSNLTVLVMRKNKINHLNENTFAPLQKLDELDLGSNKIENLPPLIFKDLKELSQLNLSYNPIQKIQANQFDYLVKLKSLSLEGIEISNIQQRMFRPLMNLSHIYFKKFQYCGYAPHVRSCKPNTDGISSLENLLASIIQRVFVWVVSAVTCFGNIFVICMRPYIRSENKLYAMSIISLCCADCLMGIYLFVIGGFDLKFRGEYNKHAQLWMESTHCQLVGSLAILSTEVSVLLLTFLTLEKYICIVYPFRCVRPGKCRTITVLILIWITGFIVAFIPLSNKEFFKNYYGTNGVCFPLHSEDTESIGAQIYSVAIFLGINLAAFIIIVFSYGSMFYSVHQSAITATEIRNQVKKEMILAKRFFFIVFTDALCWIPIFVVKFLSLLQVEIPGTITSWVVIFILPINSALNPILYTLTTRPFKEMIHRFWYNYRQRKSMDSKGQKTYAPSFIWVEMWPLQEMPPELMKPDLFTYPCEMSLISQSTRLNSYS
Outline: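 Endogenous RXFP1 in OVCAR5 cells, pretreated 40 min at 37° C with 1 mM IBMX, then exposed to increasing peptide concentrations in serum-free medium for 30 min at 37° C. cAMP read by HTRF; EC50 by variable-slope sigmoidal fit, Emax as % of H2-relaxin maximal cAMP in same run.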

[2] = in vivo; design: species or system Sprague Dawley rats; settings: Sprague Dawley, rat; for bioavailability / Cmax / Tmax: sc; for Cmax / Tmax: 3 mg/kg
Procedure: Prior to the testing of a peptide batch, its purity (HPLC-UV) was determined. Dose was corrected for presence of salts, solvent and purity. Bioanalytical screening method for quantification of peptides in rat: Sprague Dawley rats were dosed with study peptide at a dose of 1 mg/kg intravenously (i.v.) or 3 mg/kg subcutaneously (s.c.) as a solution in PBS (0.2 mg/ml and 0.6 mg/ml respectively). Blood samples were collected after: 0.083, 0.25, 0.5, 1, 2, 4, 8, 24, 48 and 72 h (i.v. route) and 0.25, 0.5, 1, 2, 4, 6, 8, 10, 24, 48 and 72 h (s.c route) post application. Plasma samples were analyzed after protein precipitation via liquid chromatography mass spectrometry (LC/MS). PK parameters and half-life were calculated using Phoenix 64 (WinNonlin 6.4)-Pharsight (Certara™) (non-compartment model). Values below the limit of quantification (BLQ) were replaced by zero for subsequent calculations and PK analysis. T½: in-vivo half-life, time required for test compound plasma concentration to be divided by two during the PK experiment. C0: Extrapolated test compound plasma concentration at t=0 time point (i.v. route). Cmax: maximal test compound plasma concentration at the indicated time point (s.c. route). Tmax: Time point where Cmax was attained. F %: s.c. vs i.v. bioavailability, dose-corrected area under curve (AUC) s.c. route divided by AUC i.v.

[3] = Stability in rat plasma; assay type: in vitro ADME; settings: for Rat plasma stability % remaining: T = 0, 37° C., 5 μM
Procedure: (§1) Prior to the testing of stability in plasma (or blood) of a peptide batch, its purity (HPLC-UV) was determined.
(§2) Rat and Human plasma: anti-coagulant sodium or lithium heparin.
(§3) 100 μM solution of study compound in 50 mM phosphate buffer pH 7.4.
(§4) 950 μL plasma (or blood) was pre-incubated for 5 min at 37° C. 50 μL of compound stock solution was added. Final compound concentration=5 μM. Vortex and transfer 150 μL plasma (or blood) into an Eppendorf for each time point. The time points […] were carried out in duplicate for each species.
(§5) After incubation, 150 μL plasma (or blood) was extracted with 600 μL Acetonitrile containing 1% TFA. Said mixture was then vortexed and centrifuged 10 min at 14600 rpm. 200 μL supernatant was dried under N2. Sample was then reconstituted in 200 μL of H2O/CH3CN 98/2+0.1% FA+50 ng/ml Labetalol and analyzed using the analytical system used in solubility and stability studies.
(§6) For determination of the amount of the remaining peptide, the peak areas of the target compound at t0 and each time point […] were compared, resulting in “% remaining peptide”, following the equation: % remaining peptide=[(peak area peptide time)×100]/peak area peptide t0. The stability was expressed as “% remaining peptide”.

[4] = Stability in human plasma; assay type: in vitro ADME; settings: for Human Plasma stability % remaining: T = 0, 37° C., 5 μM; for remaining at 1 h, 5 μM / remaining at 4 h, 5 μM: human, plasma (sodium or lithium heparin), 37° C.
Procedure: as §1, §2, §3, §4, §5, §6

[5] = Solubility testing in buffer; assay type: physicochemical; settings: target solubility 10.0 mg/ml
[6] = rat, plasma (sodium or lithium heparin), 37° C.
[7] = acetate buffer 50 mM pH 4.5, read-out: Solubility Acetate buffer pH 4.5
[8] = phosphate buffer 50 mM pH 7.4, read-out: Solubility phosphate buffer pH 7.4

| Compound | EC50 [1] | Emax [1] | C0 ([2]; iv, 1 mg/kg) | T½ (h), in-vivo half-life ([2]; iv, 1 mg/kg) | bioavailability [2] | Cmax [2] | Tmax [2] | Rat plasma stability % remaining [3] | remaining at 1 h, 5 μM [3, 6] | Human Plasma stability % remaining [4] | remaining at 1 h, 5 μM [4] | remaining at 4 h, 5 μM [4] | solubility [5, 7] | solubility [5, 8] | half-life ([2]; iv, 1 mg/kg) | remaining at 4 h, 5 μM ([3]; rat, plasma (sodium or lithium heparin), 4 h, 37° C.) |
| --- | --- | --- | --- | --- | --- | --- | --- | --- | --- | --- | --- | --- | --- | --- | --- | --- |
| CCCCCCCCCCCCCCCCCC(=O)N[C@@H](CCC(=O)N[C@@H](CCC(=O)N[C@@H](CCC(=O)NCCCOCCOCCOCCCNC(=O)CCC(=O)NCCCOCCOCCOCCCNC(=O)CCC(=O)NCCCOCCOCCOCCCNC(=O)CCC(=O)NCCCC[C@H](NC(=O)CNC(=O)[C@H](CCC(=O)O)NC(=O)C(C)(C)NC(=O)C(C)(C)NC(=O)[C@@H](NC(=O)[C@H](CCCCNC(C)=O)NC(=O)[C@H](C)NC(=O)[C@H](CCCNC(=N)N)NC(=O)[C@@H](NC(=O)[C@H](CCCCN)NC(=O)[C@H](CCC(=O)O)NC(=O)[C@H](CCCNC(=N)N)NC(=O)CNC(=O)[C@H](CCC(=O)O)NC(=O)[C@H](CC(C)C)NC(C)=O)C(C)C)[C@@H](C)CC)C(=O)N[C@@H](CO)C(=O)N[C@H](C(=O)N[C@@H](Cc1c[nH]c2ccccc12)C(=O)N[C@@H](CO)C(=O)NC(C)(C)C(=O)N[C@@H](CCCNC(=N)N)C(=O)N[C@@H](CCCCN)C(=O)N[C@@H](CCCCNC(C)=O)C(N)=O)[C@@H](C)O)C(=O)O)C(=O)O)C(=O)O [compound 20] (Ac-LEGREKVRAK(Ac)I[Aib][Aib]EGK([Suc-X3])STWS[Aib]RKK(Ac)-NH2) | 0.15 nM | 96% | 3090 nM | 5.13 h | 80% | 1990 nM | 10 h | 100% | 100% | 87% | 100% | 83% | 9340 µg/mL (≈ 2110 µM) | 9950 µg/mL (≈ 2250 µM) | – | – |
| CCCCCCCCCCCCCCCC(=O)N[C@@H](CCC(=O)N[C@@H](CCC(=O)N[C@@H](CCC(=O)NCCCOCCOCCOCCCNC(=O)CCC(=O)NCCCOCCOCCOCCCNC(=O)CCC(=O)NCCCOCCOCCOCCCNC(=O)CCC(=O)NCCCC[C@H](NC(=O)CNC(=O)[C@H](CCC(=O)O)NC(=O)C(C)(C)NC(=O)C(C)(C)NC(=O)[C@@H](NC(=O)[C@H](CCCCNC(C)=O)NC(=O)[C@H](C)NC(=O)[C@H](CCCNC(=N)N)NC(=O)[C@@H](NC(=O)[C@H](CCCCN)NC(=O)[C@H](CCC(=O)O)NC(=O)[C@H](CCCNC(=N)N)NC(=O)CNC(=O)[C@H](CCC(=O)O)NC(=O)[C@H](CC(C)C)NC(C)=O)C(C)C)[C@@H](C)CC)C(=O)N[C@@H](CO)C(=O)N[C@H](C(=O)N[C@@H](Cc1ccccc1)C(=O)N[C@@H](CO)C(=O)N[C@@H](CCCCN)C(=O)N[C@@H](CCCNC(=N)N)C(=O)N[C@@H](C)C(=O)N[C@@H](CCCCNC(C)=O)C(N)=O)[C@@H](C)O)C(=O)O)C(=O)O)C(=O)O [compound 13] (Ac-LEGREKVRAK(Ac)I[Aib][Aib]EGK([Suc-X1])STFSKRAK(Ac)-NH2) | 2.12 nM | 91% | – | – | – | – | – | 89% | 100% | 100% | 91% | 89% | – | 7680 µg/mL (≈ 1770 µM) | – | – |
| Ac-VIKLSGRELVRAQIAISGMSTWSKRSL-NH2 [AcB7-33 C11.23S, reference compound] | – | – | – | – | – | – | – | 100% | – | 100% | – | – | – | – | – | – |
| CCCCCCCCCCCCCCCCCC(=O)N[C@@H](CCC(=O)N[C@@H](CCC(=O)N[C@@H](CCC(=O)NCCCOCCOCCOCCCNC(=O)CCC(=O)NCCCOCCOCCOCCCNC(=O)CCC(=O)NCCCOCCOCCOCCCNC(=O)CCC(=O)NCCCC[C@H](NC(=O)CNC(=O)[C@H](CCC(=O)O)NC(=O)C(C)(C)NC(=O)C(C)(C)NC(=O)[C@@H](NC(=O)[C@H](CCCCNC(C)=O)NC(=O)[C@H](C)NC(=O)[C@H](CCCNC(=N)N)NC(=O)[C@@H](NC(=O)[C@H](CCCCN)NC(=O)[C@H](CCC(=O)O)NC(=O)[C@H](CCCNC(=N)N)NC(=O)CNC(=O)[C@H](CCC(=O)O)NC(=O)[C@H](CC(C)C)NC(C)=O)C(C)C)[C@@H](C)CC)C(=O)N[C@@H](CO)C(=O)N[C@H](C(=O)N[C@@H](Cc1ccccc1)C(=O)N[C@@H](CO)C(=O)N[C@@](C)(CCCCN)C(=O)N[C@@H](CCCNC(=N)N)C(=O)N[C@@H](C)C(=O)N[C@@H](CCCCNC(C)=O)C(N)=O)[C@@H](C)O)C(=O)O)C(=O)O)C(=O)O [compound 7] (Ac-LEGREKVRAK(Ac)I[Aib][Aib]EGK([Suc-X3])STFS[αMeK]RAK(Ac)-NH2) | 0.07 nM | 95% | 4160 nM | – | 61% | 1530 nM | 10 h | 77% | 100% | 92% | 94% | 87% | 11400 µg/mL (≈ 2610 µM) | 11800 µg/mL (≈ 2700 µM) | 6.34 h | 66% |
| CCCCCCCCCCCCCCCCCC(=O)N[C@@H](CCC(=O)N[C@@H](CCC(=O)N[C@@H](CCC(=O)NCCCOCCOCCOCCCNC(=O)CCC(=O)NCCCOCCOCCOCCCNC(=O)CCC(=O)NCCCC[C@H](NC(=O)CNC(=O)[C@H](CCC(=O)O)NC(=O)C(C)(C)NC(=O)C(C)(C)NC(=O)[C@@H](NC(=O)[C@H](CCCCNC(C)=O)NC(=O)[C@H](C)NC(=O)[C@H](CCCNC(=N)N)NC(=O)[C@@H](NC(=O)[C@H](CCCCN)NC(=O)[C@H](CCC(=O)O)NC(=O)[C@H](CCCNC(=N)N)NC(=O)CNC(=O)[C@H](CCC(=O)O)NC(=O)[C@H](CC(C)C)NC(C)=O)C(C)C)[C@@H](C)CC)C(=O)N[C@@H](CO)C(=O)N[C@H](C(=O)N[C@@H](Cc1c[nH]c2ccccc12)C(=O)N[C@@H](CO)C(=O)NC(C)(C)C(=O)N[C@@H](CCCNC(=N)N)C(=O)N[C@@H](CCCCN)C(=O)N[C@@H](CCCCNC(C)=O)C(N)=O)[C@@H](C)O)C(=O)O)C(=O)O)C(=O)O [compound 6] (Ac-LEGREKVRAK(Ac)I[Aib][Aib]EGK([Suc-X4])STWS[Aib]RKK(Ac)-NH2) | 0.27 nM | 95% | 5170 nM | – | 72% | 2710 nM | 8 h | 97% | 94% | 97% | 92% | 91% | – | – | 5.59 h | – |
